# Reference: US8110585B2, “Bicyclic compound and pharmaceutical use thereof” (Takeda Pharmaceutical Company Limited, priority 2007, dated 2012)
# Legend:
# [1] = target: T1, human melatonin 1 receptors (human MT1 receptors) (Homo sapiens, UniProt P48039); experiment: Melatonin receptor binding inhibitory test, 2-[125I] Iodomelatonin, MT1; details: membrane fraction of CHO-hMelR7 cells, 25° C. for 2.5 hr, read-out: binding inhibitory activity as IC50 value for MT1
# T1 construct: expressed in transfected cells; membrane fraction
# Description: (§1) Melatonin Receptor Binding Inhibitory Test
# (1) Preparation of CHO-hMelR7 Cells expressing Human Melatonin 1 Receptors
# A cDNA fragment (SEQ ID NO: 1) encoding full-length of human melatonin 1 receptors (human MT1 receptors) was incorporated into expression vector pAKKO-111H (former name pAKKO1.11H; Biochim Biophys Acta. Vol. 1219(2), pp. 251-259, 1994) to give plasmid pAKKO-hMelR7 for animal cell expression. CHO/dhfr-cells (ATCC, #CRL-9096) were plated at a concentration of 0.3×10^6 cells/dish in a 6 cm culture dish (Becton Dickinson), and cultured under the conditions of 37° C., 5% CO2 for 48 hr. The cells were transfected with pAKKO-hMelR7 plasmid DNA (5 μg) using Cellphect Transfection Kit (Amersham, #27-9268-01). The transfected cells were cultured in Dulbecco's modified Eagle medium (DMEM) (Sigma, #D6046) containing 10% dialyzed FBS (Biowest, #S180D), 1× Non-Essential Amino Acid (Invitrogen, #11140-050) and 50 μg/mL Gentamycin (Invitrogen, #15750-060), and the cell line that stably expressed the plasmid gene was selected. By a receptor binding assay using 2-[^125I] Iodomelatonin, CHO-hMelR7 cell line showing specific binding of 2-[^125I] Iodomelatonin was selected from the obtained clones.
# (§2) (3) Preparation of Cellular Membrane Fraction of CHO Cell (CHO-hMelR7 and CHO-hMT2) Stably Expressing Human MT1 and MT2 Receptors
# (§3) CHO-hMelR7 and CHO-hMT2 cells were plated using Cellfactory (Nunc, #170009) under the conditions of 1×10^8 cells/2000 mL/flask. The cells were grown to confluent, and recovered by the following method. As the medium for CHO-hMelR7 and CHO-hMT2, MEM a containing 10% FBS and penicillin/streptomycin was used. […]
# (§4) The medium was discarded, cells were washed twice with 200 mL of EDTA/PBS(−), 200 mL of EDTA/PBS(−) was further added, and the cells were stood still at room temperature for 20 min until they were released. The cells were recovered in four 50 mL tubes (Becton Dickinson, #352070), and centrifuged at 1,500 rpm for 10 min at 4° C. using a low speed cooling centrifuge (Hitachi, CF7D2). The supernatant was discarded, the pellets in the four tubes were suspended in 10 mL of PBS(−), and combined in one tube (Becton Dickinson, #352070). The mixture was further centrifuged at 1,500 rpm for 10 min at 4° C., and the obtained pellets were suspended in 20 mL of ice-cooled homogenizing buffer [10 mM NaHCO3, 5 mM EDTA, Protease inhibitor Complete (Roche), pH 7.4]. The cell suspension was homogenized 3 times using a polytron homogenizer at 20,000 rpm for 30 sec. The obtained homogenate was centrifuged (2,000 rpm, 10 min, 4° C.) using a low speed cooling centrifuge. The supernatant was recovered in an ultracentrifugation tube and ultracentrifuged (40,000 rpm, 60 min, 4° C.) using an ultracentrifuge (Beckman, L-90K). To the obtained pellets was added a suspending buffer [50 mM Tris-HCl, 1 mM EDTA, Protease inhibitor Complete (Roche), pH 7.4], and the pellets were suspended by pipetting. The protein concentration of this suspension was measured, diluted to 2 mg/mL to give cellular membrane fractions of CHO-hMelR7 and CHO-hMT2 cells. The membrane fractions were dispensed to 1.5 mL tubes (Eppendorf, #0030120.086) by 100 μL, preserved in a freezer (−80° C.) and used for a binding assay. Protein was quantified using BCA protein assay kit (Pierce) with BSA as the standard.
# (§5) (4) Preparation of Membrane Fraction Suspension
# (§6) Immediately before use, the membrane fractions of CHO-hMelR7 and CHO-hMT2 cells of the above-mentioned (3) were diluted 20-fold with assay buffer (50 mM Tris-HCl, pH 7.7).
# (§7) (5) Preparation of 2-[^125I] Iodomelatonin Solution
# (§8) 2-[^125I] Iodomelatonin (#NEX236, PerkinElmer) was diluted with the assay buffer to 400 pM for MT1 and 1 nM for MT2.
# The assay buffer (80 μL) of the above-mentioned (4) was added to each well of a 96-well plate (type 3363, Corning). Then, a test compound (compound solution diluted with DMSO to 200-fold of the final measurement concentration) was added by 2 μL. […]
# [2] = target: T2, human melatonin 2 receptors (human MT2 receptors) (Homo sapiens, UniProt P49286); experiment: Melatonin receptor binding inhibitory test, 2-[125I] Iodomelatonin, MT2; details: membrane fraction of CHO-hMT2 cells, 25° C. for 2.5 hr, read-out: binding inhibitory activity as IC50 value for MT2
# T2 construct: expressed in transfected cells; membrane fraction
# T2 sequence (P49286 1-362): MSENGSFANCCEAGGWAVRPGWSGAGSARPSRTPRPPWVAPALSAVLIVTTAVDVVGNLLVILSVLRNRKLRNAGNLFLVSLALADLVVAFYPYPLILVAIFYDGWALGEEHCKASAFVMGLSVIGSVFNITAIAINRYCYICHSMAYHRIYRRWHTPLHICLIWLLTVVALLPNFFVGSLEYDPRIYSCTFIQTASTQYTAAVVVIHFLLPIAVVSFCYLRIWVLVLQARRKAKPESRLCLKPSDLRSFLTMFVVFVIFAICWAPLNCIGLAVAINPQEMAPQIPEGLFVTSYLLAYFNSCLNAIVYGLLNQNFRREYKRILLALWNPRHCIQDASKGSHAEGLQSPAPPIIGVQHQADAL
# Description: as §1
# (2) Preparation of CHO-hMT2 Cells Expressing Human Melatonin 2 Receptors
# A cDNA fragment (SEQ ID NO: 2) encoding full-length of human melatonin 2 receptors (human MT2 receptors) was incorporated into expression vector pCMV-Script (Stratagene, #212220) to give the plasmid that was pCMV-human MT2 receptors expression vector for animal cell expression. CHO-K1 cells (ATCC, #CCL-61) were plated at the concentration of 1.5×10^5 cells/cm^2 in a 6 well plate (ASAHI TECHNO GLASS), and cultured under the conditions of 37° C., 5% CO2 for 24 hr. For gene transfection, solution obtained by blending pCMV-human MT2 receptors expression vector (1.9 μg), Lipofectamine Transfection Reagent (Invitrogen, #18324-012) (11.3 μL) and Minimum Essential Medium Eagle (MEM) medium (Sigma, M8042) (93.8 μL), and reacting at room temperature for 20 min was added to the cells per one well. The transfected cells were cultured in MEM medium containing 10% FBS (Life Technology) and 300 μg/mL Geneticin (GIBCO, #10131), and the cell line that stably expressed the plasmid gene was selected. By a receptor binding assay using 2-[^125I] Iodomelatonin, CHO-hMT2 cell line showing specific binding of 2-[^125I] Iodomelatonin was selected from the obtained clones.
# as §2, §3, §4, §5, §6, §7, §8
# The assay buffer (80 μL) of the above-mentioned (4) was added to each well of a 96-well plate (type 3363, Corning). […]
# T1 sequence (P48039 whole entry): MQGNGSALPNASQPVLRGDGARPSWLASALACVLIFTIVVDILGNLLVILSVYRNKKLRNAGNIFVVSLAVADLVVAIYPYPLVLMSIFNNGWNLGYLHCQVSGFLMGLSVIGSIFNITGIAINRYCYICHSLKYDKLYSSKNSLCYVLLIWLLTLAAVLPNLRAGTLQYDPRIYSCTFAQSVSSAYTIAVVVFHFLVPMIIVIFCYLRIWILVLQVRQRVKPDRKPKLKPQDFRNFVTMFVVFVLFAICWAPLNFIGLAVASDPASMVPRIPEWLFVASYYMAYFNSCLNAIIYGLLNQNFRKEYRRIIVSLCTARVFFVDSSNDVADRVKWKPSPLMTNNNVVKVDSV
SMILES,IC50 [1],IC50 [2],melting point
"CC(=O)NC[C@@H]1C[C@H]1c1cccc2nn(C)cc12 (relative stereo) [Example 1, trans-N-{[2-(2-methyl-2H-indazol-4-yl)cyclopropyl]methyl}acetamide]",≤ 100 nM,≤ 100 nM,153 to 154 °C
"CCC(=O)NC[C@@H]1C[C@H]1c1cccc2nn(C)cc12 (relative stereo) [Example 2, trans-N-{[2-(2-methyl-2H-indazol-4-yl)cyclopropyl]methyl}propanamide]",≤ 100 nM,≤ 100 nM,104 to 106 °C
"CC(=O)NC[C@@H]1C[C@H]1c1cccn2nc(C)cc12 (relative stereo) [Example 5, trans-N-{[2-(2-methylpyrazolo[1,5-a]pyridin-4-yl)cyclopropyl]methyl}acetamide]",≤ 100 nM,≤ 100 nM,114 to 115 °C
"CCC(=O)NC[C@@H]1C[C@H]1c1cccn2nc(C)cc12 (relative stereo) [Example 6, trans-N-{[2-(2-methylpyrazolo[1,5-a]pyridin-4-yl)cyclopropyl]methyl}propanamide]",≤ 100 nM,≤ 100 nM,95 to 98 °C
"CC(=O)NCC1CC1c1cccn2nc(C)nc12 (stereo not drawn) [Example 3, N-{[2-(2-methyl[1,2,4]triazolo[1,5-a]pyridin-8-yl)cyclopropyl]methyl}acetamide]",≤ 100 nM,,116 to 118 °C
"CCC(=O)NCC1CC1c1cccn2nc(C)nc12 (stereo not drawn) [Example 4, N-{[2-(2-methyl[1,2,4]triazolo[1,5-a]pyridin-8-yl)cyclopropyl]methyl}propanamide]",≤ 100 nM,≤ 100 nM,
"CC(=O)NC[C@H]1C[C@@H]1c1cccc2nn(C)cc12 [Example 10, N-{[(1S,2S)-2-(2-methyl-2H-indazol-4-yl)cyclopropyl]methyl}acetamide]",≤ 100 nM,≤ 100 nM,145 to 147 °C
"CC(=O)NC[C@@H]1C[C@H]1c1cccc2nn(C)cc12 [Example 11, N-{[(1R,2R)-2-(2-methyl-2H-indazol-4-yl)cyclopropyl]methyl}acetamide]",≤ 100 nM,≤ 100 nM,145 to 147 °C

# Other lines, results leading:
IC50 [1],IC50 [2],melting point,SMILES
≤ 100 nM,≤ 100 nM,155 to 156 °C,"CCC(=O)NC[C@@H]1C[C@@H]1c1cccc2nn(C)cc12 (relative stereo) [Example 14, cis-N-{[2-(2-methyl-2H-indazol-4-yl)cyclopropyl]methyl}propanamide]"
≤ 100 nM,≤ 100 nM,109 to 111 °C,"CC(=O)NC[C@@H]1C[C@H]1c1cccc2nn(C)c(F)c12 (relative stereo) [Example 18, trans-N-{[2-(3-fluoro-2-methyl-2H-indazol-4-yl)cyclopropyl]methyl}acetamide]"
≤ 100 nM,≤ 100 nM,157 to 159 °C,"CC(=O)NC[C@@H]1C[C@H]1c1c(F)ccc2nn(C)cc12 (relative stereo) [Example 23, trans-N-{[2-(5-fluoro-2-methyl-2H-indazol-4-yl)cyclopropyl]methyl}acetamide]"
≤ 100 nM,≤ 100 nM,158 to 159 °C,"CCC(=O)NC[C@@H]1C[C@H]1c1c(F)ccc2nn(C)cc12 (relative stereo) [Example 26, trans-N-{[2-(5-fluoro-2-methyl-2H-indazol-4-yl)cyclopropyl]methyl}propanamide]"
≤ 100 nM,≤ 100 nM,82 to 84 °C,"CCCC(=O)NC[C@@H]1C[C@H]1c1cccn2nc(C)cc12 (relative stereo) [Example 45, trans-N-{[2-(2-methylpyrazolo[1,5-a]pyridin-4-yl)cyclopropyl]methyl}butanamide]"
≤ 100 nM,≤ 100 nM,136 to 138 °C,"Cc1cc2c([C@@H]3C[C@H]3CNC(=O)C(F)(F)F)cccn2n1 (relative stereo) [Example 46, trans-2,2,2-trifluoro-N-{[2-(2-methylpyrazolo[1,5-a]pyridin-4-yl)cyclopropyl]methyl}acetamide]"
≤ 100 nM,≤ 100 nM,133 to 135 °C,"Cc1cc2c([C@@H]3C[C@H]3CNC(=O)C3CC3)cccn2n1 (relative stereo) [Example 47, trans-N-{[2-(2-methylpyrazolo[1,5-a]pyridin-4-yl)cyclopropyl]methyl}cyclopropanecarboxamide]"
≤ 100 nM,≤ 100 nM,108 to 110 °C,"CCNC(=O)NC[C@@H]1C[C@H]1c1cccn2nc(C)cc12 (relative stereo) [Example 51, trans-N-ethyl-N′-{[2-(2-methylpyrazolo[1,5-a]pyridin-4-yl)cyclopropyl]methyl}urea]"
≤ 100 nM,≤ 100 nM,79 to 80 °C,"CCC(=O)NC[C@H]1C[C@@H]1c1cccc2nn(C)cc12 [Example 12, N-{[(1S,2S)-2-(2-methyl-2H-indazol-4-yl)cyclopropyl]methyl}propanamide]"
≤ 100 nM,≤ 100 nM,,"CCc1ccc2nn(C)cc2c1C1CC1CNC(C)=O (stereo not drawn) [Example 32, N-{[2-(5-ethyl-2-methyl-2H-indazol-4-yl)cyclopropyl]methyl}acetamide]"
